{"source": "PubChem BioAssay (NCI)", "test_in_all_cases": "NCI tumour cell line growth inhibition, 48 h", "key": {"NCI-H522 lung": {"system": "NCI-H522 lung"}, "UO-31 renal": {"system": "UO-31 renal"}, "SK-MEL-5 melanoma": {"system": "SK-MEL-5 melanoma"}, "COLO 205 colon": {"system": "COLO 205 colon"}, "HCC-2998 colon": {"system": "HCC-2998 colon"}, "MDA-MB-231 breast": {"system": "MDA-MB-231 breast"}, "SN12C renal": {"system": "SN12C renal"}, "HT29 colon": {"system": "HT29 colon"}, "MCF7 breast": {"system": "MCF7 breast"}, "MALME-3M melanoma": {"system": "MALME-3M melanoma"}}, "note": "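Five concentrations, 48 hours, 96-well plates. GI50 is the concentration that inhibits growth by half. TGI: concentration producing complete growth inhibition.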", "data": [{"smiles": "COc1cc(OC)c(/C=C/C(=O)c2c(OC)cc(OC)cc2OC)c(OC)c1", "values": [{"measurement": "GI50", "setting": "NCI-H522 lung", "value": 515, "unit": "nM"}, {"measurement": "TGI", "setting": "NCI-H522 lung", "value": 4180, "unit": "nM"}, {"measurement": "GI50", "setting": "UO-31 renal", "value": 2230, "unit": "nM"}, {"measurement": "TGI", "setting": "UO-31 renal", "value": "> 100000", "unit": "nM"}, {"measurement": "GI50", "setting": "SK-MEL-5 melanoma", "value": 818, "unit": "nM"}, {"measurement": "TGI", "setting": "SK-MEL-5 melanoma", "value": 11200, "unit": "nM"}, {"measurement": "GI50", "setting": "COLO 205 colon", "value": 1080, "unit": "nM"}, {"measurement": "TGI", "setting": "COLO 205 colon", "value": 3960, "unit": "nM"}, {"measurement": "GI50", "setting": "HCC-2998 colon", "value": 1240, "unit": "nM"}, {"measurement": "TGI", "setting": "HCC-2998 colon", "value": 10000, "unit": "nM"}, {"measurement": "GI50", "setting": "MDA-MB-231 breast", "value": 1510, "unit": "nM"}, {"measurement": "TGI", "setting": "MDA-MB-231 breast", "value": 31100, "unit": "nM"}, {"measurement": "GI50", "setting": "SN12C renal", "value": 1810, "unit": "nM"}, {"measurement": "TGI", "setting": "SN12C renal", "value": "> 74400", "unit": "nM"}, {"measurement": "GI50", "setting": "HT29 colon", "value": 381, "unit": "nM"}, {"measurement": "TGI", "setting": "HT29 colon", "value": 2100, "unit": "nM"}, {"measurement": "GI50", "setting": "MCF7 breast", "value": 1410, "unit": "nM"}, {"measurement": "TGI", "setting": "MCF7 breast", "value": "> 100000", "unit": "nM"}, {"measurement": "GI50", "setting": "MALME-3M melanoma", "value": 1070, "unit": "nM"}, {"measurement": "TGI", "setting": "MALME-3M melanoma", "value": "> 100000", "unit": "nM"}]}]}
